# According to patent EP0908457B1, “3-(1,2-benzisothiazol- and isoxazol-5-Y1)-2,4(1H,3H)-pyrimidinedione or thione and 3-(1,2-benzisothiazol- and isoxazol-5-y1)-4(3H)-pyrimidinone or thione herbicidal agents” (BASF AKTIENGESELLSCHAFT, priority 1997, dated 1999):
# What was measured:
# [1] = system: Echinochloa oryzoides (Ard.) Fritsch.; assay: Preemergence weed control under flooded paddy conditions, ECHORC (Watergrass (Calif.)); type: in vivo; details: preemergence weeds, flooded paddy, rated three to four weeks after treatment
# Cyperus iria = assay: Preemergence weed control under flooded paddy conditions, CYPIR (Rice Flatsedge); type: in vivo; details: preemergence weeds, flooded paddy, rated three to four weeks after treatment
# [2] = system: Cyperus serotinus, Rottb.; assay: Preemergence weed control under flooded paddy conditions, CYPSE (Flatsedge); type: in vivo; details: preemergence weeds, rated three to four weeks after treatment
# [3] = system: Monochoria vaginalis, Presl.; assay: Preemergence weed control under flooded paddy conditions, MOOVA (Monochoria); type: in vivo; details: preemergence weeds, flooded paddy, rated three to four weeks after treatment
# Sagittaria pygmaea, L. = assay: Preemergence weed control under flooded paddy conditions, SAGPY (Arrowhead (Pygmaea)); type: in vivo; details: preemergence weeds, flooded paddy, rated three to four weeks after treatment
# [4] = system: Oryza sativa, (L.) Tebonnet; assay: Rice tolerance to post-transplant applications under flooded paddy conditions (Example 187), ORYSAT (Rice, Tebonnet); details: rated three to four weeks after treatment
# Also: meaning of each grade not given here.
Compound,"herbicidal effect rating, ECHORC ([1]; Rate 0.0320 kg/ha)","herbicidal effect rating, ECHORC ([1]; Rate 0.0620 kg/ha)","herbicidal effect rating, ECHORC ([1]; Rate 0.1250 kg/ha)","herbicidal effect rating, ECHORC ([1]; Rate 0.2500 kg/ha)","herbicidal effect rating, CYPIR (Cyperus iria; Rate 0.0320 kg/ha)","herbicidal effect rating, CYPIR (Cyperus iria; Rate 0.0620 kg/ha)","herbicidal effect rating, CYPIR (Cyperus iria; Rate 0.1250 kg/ha)","herbicidal effect rating, CYPIR (Cyperus iria; Rate 0.2500 kg/ha)","herbicidal effect rating, CYPSE ([2]; Rate 0.0320 kg/ha)","herbicidal effect rating, CYPSE ([2]; Rate 0.0620 kg/ha)","herbicidal effect rating, CYPSE ([2]; Rate 0.1250 kg/ha)","herbicidal effect rating, CYPSE ([2]; Rate 0.2500 kg/ha)","herbicidal effect rating, MOOVA ([3]; Rate 0.0320 kg/ha)","herbicidal effect rating, MOOVA ([3]; Rate 0.0620 kg/ha)","herbicidal effect rating, MOOVA ([3]; Rate 0.1250 kg/ha)","herbicidal effect rating, MOOVA ([3]; Rate 0.2500 kg/ha)","herbicidal effect rating, SAGPY (Sagittaria pygmaea, L.; Rate 0.0320 kg/ha)","herbicidal effect rating, SAGPY (Sagittaria pygmaea, L.; Rate 0.0620 kg/ha)","herbicidal effect rating, SAGPY (Sagittaria pygmaea, L.; Rate 0.1250 kg/ha)","herbicidal effect rating, SAGPY (Sagittaria pygmaea, L.; Rate 0.2500 kg/ha)",also measured
"CC(Oc1ccccc1-c1nsc2ccc(-n3c(=O)cc(C(F)(F)F)n(C)c3=O)cc12)C(=O)O (stereo not drawn) [Example 314, Propionic acid, 2-{o-{5-[3,6-dihydro-3-methyl-2,6-dioxo-4-(trifluoromethyl)-1(2H)-pyrimidinyl]-1,2-benzisothiazol-3-yl}phenoxy}-]",5.0,5.0,9.0,9.0,9.0,9.0,9.0,9.0,0.0,0.0,0.0,0.0,9.0,9.0,9.0,9.0,0.0,0.0,0.0,0.0,herbicidal effect rating ORYSAT ([4]; Rate 0.0320 kg/ha): 3.0; herbicidal effect rating ORYSAT ([4]; Rate 0.0620 kg/ha): 3.0; herbicidal effect rating ORYSAT ([4]; Rate 0.1250 kg/ha): 4.0; herbicidal effect rating ORYSAT ([4]; Rate 0.2500 kg/ha): 5.0
"Cn1c(C(F)(F)F)cc(=O)n(-c2ccc3snc(C(=O)O)c3c2)c1=O [Example 315, 1,2-Benzisothiazole-3-carboxylic acid, 5-[3,6-dihydro-3-methyl-2,6-dioxo-4-(trifluoromethyl)-1(2H)-pyrimidinyl]-]",0.0,0.0,0.0,3.0,0.0,0.0,5.0,9.0,0.0,0.0,3.0,3.0,9.0,9.0,9.0,9.0,0.0,0.0,3.0,4.0,herbicidal effect rating ORYSAT ([4]; Rate 0.0320 kg/ha): 0.0; herbicidal effect rating ORYSAT ([4]; Rate 0.0620 kg/ha): 0.0; herbicidal effect rating ORYSAT ([4]; Rate 0.1250 kg/ha): 0.0; herbicidal effect rating ORYSAT ([4]; Rate 0.2500 kg/ha): 2.0
"CONC(=O)COc1ccc(C)cc1-c1nsc2ccc(-n3c(=O)cc(C(F)(F)F)n(C)c3=O)cc12 [Example 316, Acetamide, 2-{{2-{5-[3,6-dihydro-3-methyl-2,6-dioxo-4-(trifluoromethyl)-1(2H)-pyrimidinyl]-1,2-benzisothiazol-3-yl}-p-tolyl}oxy}-N-methoxy-]",5.5,9.0,9.0,9.0,8.5,7.5,7.5,6.0,1.0,4.5,4.5,0.0,8.0,9.0,9.0,9.0,0.0,3.0,1.0,3.0,herbicidal effect rating ORYSAT ([4]; Rate 0.0320 kg/ha): 4.5; herbicidal effect rating ORYSAT ([4]; Rate 0.0620 kg/ha): 4.0; herbicidal effect rating ORYSAT ([4]; Rate 0.1250 kg/ha): 4.5; herbicidal effect rating ORYSAT ([4]; Rate 0.2500 kg/ha): 4.0
"COC(=O)c1nsc2ccc(-n3c(=O)cc(C(F)(F)F)n(C)c3=O)cc12 [Example 318, 1,2-Benzisothiazole-3-carboxylic acid, 5-[3,6-dihydro-3-methyl-2,6-dioxo-4-(trifluoromethyl)-1(2H)-pyrimidinyl]-, methyl ester]",0.0,3.0,5.0,5.0,0.0,2.0,5.0,6.0,0.0,0.0,0.0,9.0,4.0,6.0,9.0,9.0,0.0,0.0,0.0,4.0,herbicidal effect rating ORYSAT ([4]; Rate 0.0320 kg/ha): 5.0; herbicidal effect rating ORYSAT ([4]; Rate 0.0620 kg/ha): 5.0; herbicidal effect rating ORYSAT ([4]; Rate 0.1250 kg/ha): 5.0; herbicidal effect rating ORYSAT ([4]; Rate 0.2500 kg/ha): 9.0
"Cn1c(C(F)(F)F)cc(=O)n(-c2ccc3snc(C(=O)Oc4ccccc4)c3c2)c1=O [Example 319, 1,2-Benzisothiazole-3-carboxylic acid, 5-[3,6-dihydro-3-methyl-2,6-dioxo-4-(trifluoromethyl)-1(2H)-pyrimidinyl]-, phenyl ester]",3.0,7.0,9.0,9.0,3.0,9.0,9.0,9.0,4.0,6.0,6.0,6.0,9.0,9.0,9.0,9.0,6.0,6.0,9.0,9.0,herbicidal effect rating ORYSAT ([4]; Rate 0.0320 kg/ha): 5.0; herbicidal effect rating ORYSAT ([4]; Rate 0.0620 kg/ha): 6.0; herbicidal effect rating ORYSAT ([4]; Rate 0.1250 kg/ha): 6.0; herbicidal effect rating ORYSAT ([4]; Rate 0.2500 kg/ha): 7.0
"Cn1c(C(F)(F)F)cc(=O)n(-c2ccc3snc(C(N)=O)c3c2)c1=O [Example 322, 1,2-Benzisothiazole-3-carboxamide, 5-[3,6-dihydro-3-methyl-2,6-dioxo-4-(trifluoromethyl)-1(2H)-pyrimidinyl]-]",9.0,9.0,9.0,9.0,4.0,6.0,7.0,9.0,5.0,5.0,6.0,9.0,5.0,9.0,9.0,9.0,3.0,3.0,3.0,9.0,herbicidal effect rating ORYSAT ([4]; Rate 0.0320 kg/ha): 5.0; herbicidal effect rating ORYSAT ([4]; Rate 0.0620 kg/ha): 5.0; herbicidal effect rating ORYSAT ([4]; Rate 0.1250 kg/ha): 5.0; herbicidal effect rating ORYSAT ([4]; Rate 0.2500 kg/ha): 7.0
"Cn1c(C(F)(F)F)cc(=O)n(-c2ccc3snc(C(=O)NS(C)(=O)=O)c3c2)c1=O [Example 323, 1,2-Benzisothiazole-3-carboxamide, 5-[3,6-dihydro-3-methyl-2,6-dioxo-4-(trifluoromethyl)-1(2H)-pyrimidinyl]-N-(methylsulfonyl)-]",4.5,6.5,8.0,8.0,3.5,4.5,8.0,8.0,5.0,6.0,6.5,7.5,8.0,9.0,9.0,9.0,0.0,3.5,3.5,9.0,herbicidal effect rating ORYSAT ([4]; Rate 0.0320 kg/ha): 3.5; herbicidal effect rating ORYSAT ([4]; Rate 0.0620 kg/ha): 5.0; herbicidal effect rating ORYSAT ([4]; Rate 0.1250 kg/ha): 6.0; herbicidal effect rating ORYSAT ([4]; Rate 0.2500 kg/ha): 7.5
